# Results from PubChem BioAssay (NCI).
# Several values for one entry are separate records, joined by “and”; a condition that tells them apart may be missing. Equal values may be shown once.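 Step 1: Grow cells in 96-well plates. Step 2: Expose to compound for 48 hours at 5 concentrations. Step 3: Interpolate endpoints linearly; if unreached, use highest concentration. Here, GI50 denotes the concentration required for 50% inhibition of growth. Definition used: TGI = concentration required for complete inhibition of growth.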
# Legend:
# Assay in all cases: growth of human tumour cells (NCI), 48 h
# ACHN renal = system: ACHN renal
# RPMI-8226 leukemia = system: RPMI-8226 leukemia
# CAKI-1 renal = system: CAKI-1 renal
# HT29 colon = system: HT29 colon
# UACC-257 melanoma = system: UACC-257 melanoma
# SK-MEL-5 melanoma = system: SK-MEL-5 melanoma
# UO-31 renal = system: UO-31 renal
# OVCAR-4 ovarian = system: OVCAR-4 ovarian
# NCI-H522 lung = system: NCI-H522 lung
# MALME-3M melanoma = system: MALME-3M melanoma
SMILES,GI50 (ACHN renal) [µM],TGI (ACHN renal) [µM],GI50 (RPMI-8226 leukemia) [µM],TGI (RPMI-8226 leukemia),GI50 (CAKI-1 renal) [µM],TGI (CAKI-1 renal) [µM],GI50 (HT29 colon),TGI (HT29 colon),GI50 (UACC-257 melanoma),TGI (UACC-257 melanoma),GI50 (SK-MEL-5 melanoma),TGI (SK-MEL-5 melanoma),GI50 (UO-31 renal) [µM],TGI (UO-31 renal) [µM],GI50 (OVCAR-4 ovarian) [µM],TGI (OVCAR-4 ovarian),GI50 (NCI-H522 lung) [µM],TGI (NCI-H522 lung) [µM],GI50 (MALME-3M melanoma),TGI (MALME-3M melanoma)
CC(C)c1ccc(-c2cc(-c3cn[nH]c3-c3ccccn3)ccn2)cc1,18.5,> 25,11.9,> 25 µM,19.1,> 25,6.92 µM,> 19.6 µM,> 25 µM,> 25 µM,6.65 µM,> 16.6 µM,6.6,> 25,10.4,> 25 µM,6.82,> 25,8.83 µM,> 25 µM
Cc1cc(C)c(NC(=O)c2sc3nc4c(cc3c2N)C(=O)CCC4)c(C)c1,6.11,> 100,4.74,> 100 µM,2.66,> 100,3.09 µM,11.1 µM,10 µM,> 95.9 µM,0.998 µM,13.8 µM,9.04,> 100,6.89,> 100 µM,0.6,3.06,1.83 µM,> 100 µM
COc1cc(Cc2nccc3cc(OC)c(OC)cc23)c(C(C)=O)cc1OC,,429,,265 µM and > 750 µM,> 750,> 750,96.8 µM and 140 µM,300 µM and 626 µM,55 µM and 49 µM and 35.4 µM,116 µM and 144 µM,25.6 µM and 130 µM,139 µM and 486 µM,> 750,> 750,13.2,52.3 µM and 197 µM,21.5,300,72.1 µM and 22.6 µM,64.1 µM and 158 µM
CCc1nc(N)nc(N)c1-c1ccc(NC)c([N+](=O)[O-])c1,,> 100,,> 43.3 µM,,> 79,,33.7 µM,,> 100 µM,,29.1 µM,,> 100,,> 100 µM,,> 57.2,,> 100 µM
OCC1OC(n2cnc3c2NC=NC[C@H]3O)C(Cl)C1O (some centres not stated),,> 100,,> 100 µM,,> 100,,> 100 µM,,> 100 µM,,> 100 µM,,> 100,,> 100 µM,,> 100,,> 100 µM
C=CCCCCC/C=C\[C@@H](O)C#CC#C/C=C/CO,> 100,> 100,16.3,38.4 µM,> 100,> 100,> 100 µM,> 100 µM,> 100 µM,> 100 µM,> 100 µM,> 100 µM,> 100,> 100,> 100,> 100 µM,26,98.7,> 100 µM,> 100 µM
O=C(Nc1n[nH]c2cc(-c3ccccc3)ccc12)C1CC1,> 25,> 25,9.58,> 25 µM,9.36,> 25,2.31 µM,> 25 µM,> 25 µM,> 25 µM,8.75 µM,> 25 µM,16.9,> 25,> 25,> 25 µM,1.29,> 25,> 17.7 µM,> 25 µM
CC(C)c1c(O)c(O)c2c(c1O)C(=O)C(O)=C1C(C)(C)CCC[C@@]12C,,11.3,,3.99 µM,,6.34,,10.2 µM,,8.61 µM,,10.8 µM,,7,,16.7 µM,,13.4,,15.9 µM
Cc1cc2nc(C=C(C(F)(F)F)C(F)(F)F)oc2cc1C,,> 10,,5.62 µM,,7.23,,7.76 µM,,> 10 µM,,> 10 µM,,> 10,,7.78 µM,,6.35,,3.76 µM
CC1=CC(C)(C)N=C2SC(c3ccc(N)cc3)=NN12,,> 100,,> 66.3 µM,,> 100,,98.2 µM,,> 100 µM,,> 100 µM,,> 100,,> 100 µM,,> 100,,> 100 µM
COc1ccc(C(=O)c2cc(C)c(OC)c(C)c2)c(OC)c1O,0.0566,> 100,0.0463,> 62.6 µM,0.185,> 100,3.73 µM,> 55.6 µM,32.9 µM,> 100 µM,0.0552 µM,0.292 µM,0.0695,> 54,0.415,> 100 µM,< 0.0189,,0.0739 µM,> 100 µM
COc1ccc2[nH]c3c4[nH]c5ccc(OC)cc5c4c4c(c3c2c1)C(=O)NC4=O,> 6.71,> 25,0.998,> 25 µM,1.77,> 25,> 25 µM,> 25 µM,> 25 µM,> 25 µM,> 22 µM,> 25 µM,0.654,> 25,> 25,> 25 µM,2.32,> 25,12.4 µM,> 25 µM
CC(=O)C1Cn2c(nc3ccccc32)C[Se]1 (configuration not stated),,11.4,,62.9 µM,,5.54,,23.2 µM,,5.38 µM,,3.61 µM,,8.46,,11.8 µM,,10.3,,5.83 µM
CCOC(=O)CCC(=O)C1c2cccc(O)c2C(=O)c2c(O)cc(C)cc21 (configuration not stated),,2.41,,5.77 µM,,3.25,,7.17 µM,,2.8 µM,,1.83 µM,,1.19,,1.76 µM,,1.33,,2.65 µM
CCOC(=O)C(=O)Nc1ccccc1CC,,> 100,,> 100 µM,,> 100,,> 100 µM,,> 100 µM,,> 100 µM,,> 100,,> 100 µM,,> 100,,> 100 µM
COc1c2c(cc3c1OCO3)[C@]13C=C[C@H](OC)C[C@H]1N(C2)CC3O (some centres not stated),,> 100,,> 100 µM,,> 100,,> 100 µM,,> 100 µM,,> 100 µM,,> 100,,> 100 µM,,> 100,,> 100 µM
O=C(CCc1nc(=S)[nH][nH]1)Nc1ccccc1Cl,,> 100,,> 100 µM,,> 100,,> 100 µM,,> 100 µM,,> 100 µM,,> 100,,> 100 µM,,> 100,,> 100 µM

SMILES,GI50 (ACHN renal) [µM],TGI (ACHN renal) [µM],GI50 (RPMI-8226 leukemia) [µM],TGI (RPMI-8226 leukemia),GI50 (CAKI-1 renal) [µM],TGI (CAKI-1 renal) [µM],GI50 (HT29 colon),TGI (HT29 colon),GI50 (UACC-257 melanoma),TGI (UACC-257 melanoma),GI50 (SK-MEL-5 melanoma),TGI (SK-MEL-5 melanoma),GI50 (UO-31 renal) [µM],TGI (UO-31 renal) [µM],GI50 (OVCAR-4 ovarian) [µM],TGI (OVCAR-4 ovarian),GI50 (NCI-H522 lung) [µM],TGI (NCI-H522 lung) [µM],GI50 (MALME-3M melanoma),TGI (MALME-3M melanoma)
CN(C)CCC1(C2=CCCC2)CC/C(=C\c2ccc(Cl)cc2)C1=O (configuration not stated),,23.8,,22.4 µM,,19.2,,8.35 µM,,8.62 µM,,4.07 µM,,18.8,,21.5 µM,,18.8,,15.4 µM
CCCC(CCC)NCC(O)c1cc(-c2ccc(C(F)(F)F)cc2)nc(C(F)(F)F)c1 (configuration not stated),1.63,3.16,2.15,4.87 µM,1.94,3.98,1.83 µM,3.32 µM,1.8 µM,3.45 µM,1.73 µM,3.1 µM,1.58,3.13,1.83,3.32 µM,1.71,3.26,2.05 µM,4.02 µM
COc1ccc(C2=C(Cl)c3cc(OC)c(OC)cc3C2Cl)cc1 (configuration not stated),,30.6,,> 66.3 µM,,34.6,,28.8 µM,,39.6 µM,,27.5 µM,,13.4,,35.4 µM,,> 27.5,,46.9 µM
CCCC1=C(CC)C(C(=O)Nc2c(C)cccc2C)=NC(S)N1 (configuration not stated),,> 100,,> 100 µM,,> 100,,> 100 µM,,> 100 µM,,> 100 µM,,> 100,,> 100 µM,,> 100,,> 100 µM
CC/C=C\C[C@H](O)C/C=C1/C(=O)C=C[C@@H]1C/C=C\CCCC(=O)OC,2,4.27,1,9.21 µM,3.11,12.7,1.61 µM,3.8 µM,2.36 µM,7.09 µM,1.54 µM,2.91 µM,1.75,3.4,3.48,16.2 µM,1.03,2.43,2.14 µM,6.24 µM
CCNCCNc1cc(-c2ccc(C(F)(F)F)cc2)c(C#N)c2nc3ccccc3n12,1.24,2.64,1.36,3.61 µM,1.11,2.31,0.365 µM,1.29 µM,2.18 µM,3.83 µM,1.67 µM,3.04 µM,1.36,2.77,0.469,1.78 µM,1.82,3.66,1.74 µM,3.34 µM
COC(=O)C(Cc1nc2ccccc2[nH]c1=O)C(NO)C(=O)Nc1c(Cl)cc([N+](=O)[O-])cc1Cl (configuration not stated),,> 100,,> 100 µM,,> 100,,> 100 µM,,> 100 µM,,46.4 µM,,> 100,,> 100 µM,,31.3,,> 100 µM
COc1ccc(C(=O)c2cc(OC)c(OC)c(OC)c2)cc1/C=C/C(=O)c1ccc(F)cc1,1.68,3.23,2.32,6.98 µM,2.78,14.6,2.44 µM,5.63 µM,12.3 µM,49.7 µM,4.31 µM,15.5 µM,1.77,3.49,4.55,33.6 µM,2.02,5.34,2.76 µM,8.87 µM
O=c1cc(NCC(O)CN2CCCC2)n(Cc2ccccc2)c(=O)n1Cc1ccccc1 (configuration not stated),> 100,> 100,22.6,46.5 µM,> 100,> 100,20 µM,49 µM,31.9 µM,85.6 µM,17.1 µM,32.2 µM,45.8,> 100,58.3,> 100 µM,79.3,> 100,22.6 µM,61.7 µM
CCOC(=O)C1SC(=Nc2ccc(C)c(C)c2)N=C1C (configuration not stated),,> 100,,> 100 µM,,> 100,,> 100 µM,,> 100 µM,,> 100 µM,,> 100,,> 100 µM,,> 100,,> 100 µM
O=C(O)CNS(=O)(=O)c1ccc(NC(=O)c2ccc([N+](=O)[O-])cc2)cc1,,> 100,,> 100 µM,,> 100,,> 100 µM,,> 100 µM,,> 100 µM,,> 100,,> 100 µM,,> 100,,> 100 µM
CC1=[N+]([O-])c2ccccc2C(=O)C1=O,,> 100,,> 100 µM,,> 100,,> 100 µM,,> 100 µM,,> 100 µM,,> 100,,> 100 µM,,71.4,,> 100 µM
COc1cc(/C=C/c2ccc(OC)c(O)c2)cc(OC)c1,,41.2,,9.92 µM,,72.8,,32.3 µM,,24.9 µM,,14.4 µM,,41.9,,67.9 µM,,4.49,,38 µM
c1ccc(Sc2ccc(Cc3nc4cc5ccccc5cc4[nH]3)cc2)cc1,13.2,> 75.1,3.77,49.7 µM,11.7,48.8,8.54 µM,> 100 µM,5.33 µM,29.1 µM,2.88 µM,18.4 µM,20.7,> 100,57.5,> 100 µM,9.69,> 62.9,9.93 µM,66.7 µM
Cc1ccc(N=C/C=C(\Nc2ccc(C)cc2)c2ccc(Cl)cc2)cc1,14.5,> 100,3.53,> 100 µM,8.52,40.4,4 µM,> 100 µM,15.8 µM,38.8 µM,6 µM,20.7 µM,21.4,85.8,47.4,> 100 µM,21.9,70,9.27 µM,48.4 µM
CCCCCCCCCCCCCCCC(=O)OCC(C[As](=O)(O)O)OC(=O)CCCCCCCCCCCCCCC (configuration not stated),,> 100,,> 100 µM,,> 100,,> 100 µM,,> 100 µM,,> 100 µM,,> 100,,> 100 µM,,> 100,,> 100 µM
